Test results: US11351121B2, “Calcium alginate dosage formulations, and methods of making and using thereof” (Temple University—Of The Commonwealth System of Higher …, priority 2015, dated 2022)
Entries after “also recorded” stand apart in the source; their conditions may differ.

Columns and labels:
[1] = Dissolution of formulations A-K: acid stage (0.1 N HCl two hours) then buffer stage; assay type: physicochemical; conditions: for T80: buffer stage pH 7.2 phosphate buffer after 0.1 N HCl two hours; for % released in acid stage: after two hours
Procedure: (§1) A dissolution study was performed on each of the different tablets to determine their dissolution profiles. Dissolution USP apparatus II (Paddle) was initially used. […] Rotation speed was 50 RPM and the temperature was 37.0±0.5° C. The dissolution media used was 900 ml of 0.1 N hydrochloric acid in each vessel. After 2 hours the dissolution media was changed to 900 ml of standard 50 mM pH 7.2 potassium phosphate buffer. A 1 ml sample was withdrawn at each time. The samples were analyzed by HPLC.
HPLC analysis: an Agilent 1100 series HPLC with auto-sampler and dual wavelength detector was used. The mobile phase was acetonitrile to water with 0.5% formic acid (60:50 v/v).
Methods: different formulations were developed. […] The ingredients of all the formulations were mixed with deionized water at room temperature. The basket method described in chapter two was used to fabricate the tablets. 2 or 1.5 ml of the gel was dispensed into the basket as indicated.
Release profiles of the tablets were investigated in different buffer capacities and pH values. The tablets were pretreated in the acid stage for two hours before transferring them to the buffer stage.

[2] = Drug loss during the cross-linking process; assay type: physicochemical; conditions: previous formulations (with glycerol, lactose, sucrose)
[3] = Dissolution of compressed caffeine tablets (Carver press, Minipress IIBD); assay type: physicochemical; conditions: compressed tablet with alginate film coating
Procedure: Coated Tablet Results: different weight gains were tested to try to achieve the delayed release profile.
Because it was somewhat more difficult to produce tablets with similar hardness on the Minipress using the formulation used on the Carver press, lactose was added to increase the hardness of the tablets.

[4] = cited from earlier work
[5] = Dissolution of calcium alginate tablets in different dissolution media (deionized water, EDTA, EDTA+CaCl2); assay type: physicochemical
Procedure: In order to investigate the role of solutes and pH of the media on the erosion process, calcium alginate tablets made with same formulation were treated in different dissolution media.
The dissolution of the drug from the Ca Alginate dosage form was dependent on two things. First the pH of the media had to be neutral or high. Second the media had to have the ability to complex with the Calcium in solution. […] The drug release at pH 7.2 in media with either EDTA or phosphate buffer was complete in 6 hours. Drug release in 0.1 N HCl was less than 5%.

[6] = Dissolution study of calcium alginate tablets, USP apparatus I (basket), 0.1 N HCl 2 hours then pH 7.2 phosphate buffer; assay type: physicochemical; conditions: after two hours
Procedure: Analysis: an Agilent 1100 series HPLC with autosampler and dual wavelength detector was used. The mobile phase was acetonitrile to water with 0.5% formic acid (60:50 v/v). The flow rate was 1.2 mL/min and the sample injection volume was 50 μL and the wavelength of detection was 214 nm. The column used was a 150 by 4.6 mm Eclipse Plus C18 column (Agilent).
as §1

[7] = poly(ethyloxaline)/PMAA matrix disks, 0.9% saline; cited from earlier work

For `O=C(O)c1ccccc1` [Benzoic acid, benzoic acid], the “drug load released during residence time in the acid stage” value ([1]; benzoic acid, previous formulations (with glycerol, lactose, sucrose)) was “more than 30%”, the T80 ([1]; formulation B) was 6.76 h and the “released in the acid stage after two hours” value ([1]; formulation C) was “about 18%”. The T80 ([1]; formulation C) was 6.4 h, the “% released in acid stage” value ([1]; formulation K) was 7% and the “erosion of tablets at pH 3 and pH 4” value ([1]; formulation K, buffer stage) was “no erosion was detected”. The “erosion of tablets at pH 5” value ([1]; formulation K, buffer stage) was “started to erode but at a slower rate compared to pH 7.2”, the “effect of higher buffer capacity on release rate” value ([1]; formulation K, 100 mM phosphate buffer, pH 7.2) was “minimum effect on the release rate” and the “effect of lower buffer capacity on drug release” value ([1]; formulation K, 25 and 10 mM phosphate buffer, pH 7.2) was “a slower drug release”. For the same compound, the “benzoic acid lost during the cross-linking process” value [2] was “more than 30%”.

For `Cn1c(=O)c2c(ncn2C)n(C)c1=O` [Caffeine, caffeine], the “% released in acid stage” value ([1]; formulation K) was 18%, the “caffeine release by 12 hours” value [3] was 80% and the “time for which caffeine is retained” value [3] was “up to 8 hours”.

In the case of `COc1ccccc1OCC(O)CO` (stereo not drawn) [Guaifenesin, guaifenesin], the “% released in acid stage” value ([1]; formulation K) is listed as 17% and the solubility [4] is listed as “highly soluble”.

In the case of `CC(C)Cc1ccc(C(C)C(=O)O)cc1` (stereo not drawn) [Ibuprofen, ibuprofen], the T80 ([1]; formulation B) is reported as 4.8 h, the T80 ([1]; formulation C) is reported as 6.71 h and the “% released in acid stage” value ([1]; formulation K) is reported as under 1%. For the same compound, the “release of the drug in pH 7.2 deionized water” value ([5]; calcium alginate tablets, pH 7.2 deionized water) was “no significant release; also recorded: no drug release”, the “time to complete drug release” value ([5]; pH 7.2 media with either EDTA or phosphate buffer) was 6 h and the “drug release in 10 mM EDTA dissolution medium” value ([5]; tablets with 1 g stearic acid, 1 molar CaCl2 3 minutes, 10 mM EDTA) was “Complete drug release”. The “erosion or release in EDTA solution treated with calcium chloride” value ([5]; tablets with 1 g stearic acid, 1 molar CaCl2 3 minutes, 10 mM EDTA+30 mM CaCl2) was “No erosion or release” and the “drug released in 0.1 N HCl media” value [6] was “less than 5%”.

For “insulin: regular zinc insulin in a poly(ethyloxaline)/PMAA matrix (Kwon et al.)”, the “insulin released during the 3 days equilibrium period in saline” value [7] is listed as “less than 4 % of the initial insulin load”.
